Measurements taken from patent publication US10377757B2, “Crystal form of JAK inhibitor and preparation method thereof” (CRYSTAL PHARMATECH CO., LTD, priority 2015, dated 2019).
Entries after “also recorded” stand apart in the source; their conditions may differ.

Tests used:
[1] = Hygroscopicity assessment by dynamic vapor sorption (DVS); type: physicochemical; details: for weight gain under 80% Relative Humidity: DVS, 10 mg sample, 80% RH
Method: Hygroscopicity of 10 mg Form I of the present disclosure was tested using dynamic vapor sorption (DVS). 5.
About hygroscopicity characterization description and definition of hygroscopicity (Chinese Pharmacopoeia 2010 edition appendix XIXJ Drug hygroscopic test guidelines, test at 25° C.+/−1° C., 80% Relative Humidity) • deliquescent: sufficient water is absorbed to form a liquid; • very hygroscopic: increase in mass is equal to or greater than 15 percent; • hygroscopic: increase in mass is less than 15 percent and equal to or greater than 2 percent; • slightly hygroscopic: increase in mass is less than 2 percent and equal to or greater than 0.2 percent. • no or almost no hygroscopic: increase in mass is less than 0.2%.
Hygroscopicity of 10 mg of phosphate crystalline Form A and phosphate crystalline Form C of the present disclosure were tested using dynamic vapor sorption (DVS). The DVS plot of phosphate crystalline Form A is shown in FIG. 23, The DVS plot of phosphate crystalline Form C is shown in FIG. 24.
Pharmacopoeia 2010 edition appendix XIXJ Drug hygroscopic test guidelines, test at 25° C.+/−1° C., 80% Relative Humidity) • deliquescent: sufficient water is absorbed to form a liquid; • very hygroscopic: increase in mass is equal to or greater than 15 percent; • hygroscopic: increase in mass is less than 15 percent and equal to or greater than 2 percent; • slightly hygroscopic: increase in mass is less than 2 percent and equal to or greater than 0.2 percent. • no or almost no hygroscopic: increase in mass is less than 0.2%.

[2] = Stability assessment: storage under stress conditions, XRPD after storage; type: physicochemical; details: for Form Change: XRPD; for stability (overall conclusion in words): solid form stability on storage
Method: The crystalline Form I of the present disclosure was stored under 5° C., 25° C./60% RH and 40° C./75% relative humidity for 90 days. XRPD patterns were collected after storage.
The crystalline Form II of the present disclosure was stored under 5° C. and 25° C./60% RH. XRPD patterns were collected after storage.
Phosphate Form A of the present disclosure was stored under 5° C., 25° C./60% RH and 40° C./75% RH for 90 days. XRPD patterns were collected after storage.
Two of 10 mg of phosphate Form C were respectively opened stored at 25° C./60% RH and 40° C./75% RH for 30 days. XRPD and purity of the sample were collected after storage.

JAK2 = JAK2 (Homo sapiens, UniProt O60674); details: kinase detection, selectivity over JAK3; cited from earlier work
[3] = stored at 25° C./60% RH for 30 days
[4] = stored at 25° C./60% RH for 90 days
[5] = stored at 40° C./75% RH for 90 days

Chain of JAK2 (O60674 whole entry): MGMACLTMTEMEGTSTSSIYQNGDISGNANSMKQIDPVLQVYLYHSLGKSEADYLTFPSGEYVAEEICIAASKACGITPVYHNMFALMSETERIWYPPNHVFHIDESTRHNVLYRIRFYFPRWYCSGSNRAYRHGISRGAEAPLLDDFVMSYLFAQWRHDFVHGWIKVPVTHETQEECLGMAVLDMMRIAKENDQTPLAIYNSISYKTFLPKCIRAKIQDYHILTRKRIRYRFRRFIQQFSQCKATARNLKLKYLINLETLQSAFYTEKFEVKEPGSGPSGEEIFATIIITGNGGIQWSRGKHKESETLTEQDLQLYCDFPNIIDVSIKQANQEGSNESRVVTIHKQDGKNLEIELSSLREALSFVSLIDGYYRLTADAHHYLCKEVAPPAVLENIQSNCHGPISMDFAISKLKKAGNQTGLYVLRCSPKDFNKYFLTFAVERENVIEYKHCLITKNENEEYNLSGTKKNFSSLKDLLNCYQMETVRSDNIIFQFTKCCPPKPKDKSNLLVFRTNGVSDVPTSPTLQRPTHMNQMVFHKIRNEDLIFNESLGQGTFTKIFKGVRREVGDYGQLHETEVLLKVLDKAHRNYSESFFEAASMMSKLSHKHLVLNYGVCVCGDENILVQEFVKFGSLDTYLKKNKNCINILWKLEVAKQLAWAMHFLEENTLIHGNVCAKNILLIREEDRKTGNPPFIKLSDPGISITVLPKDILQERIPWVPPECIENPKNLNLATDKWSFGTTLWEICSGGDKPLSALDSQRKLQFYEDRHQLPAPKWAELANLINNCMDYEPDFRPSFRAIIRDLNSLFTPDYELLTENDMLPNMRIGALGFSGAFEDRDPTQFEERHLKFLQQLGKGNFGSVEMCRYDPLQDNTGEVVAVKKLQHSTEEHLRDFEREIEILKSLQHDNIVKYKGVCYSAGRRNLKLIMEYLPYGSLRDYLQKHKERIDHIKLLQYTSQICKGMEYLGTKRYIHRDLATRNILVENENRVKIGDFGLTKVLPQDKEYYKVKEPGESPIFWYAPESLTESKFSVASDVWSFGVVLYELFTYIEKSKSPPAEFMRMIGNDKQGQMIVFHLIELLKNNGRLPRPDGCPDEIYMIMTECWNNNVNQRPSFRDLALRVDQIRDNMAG

SMILES	weight gain under 80% Relative Humidity [1] [%]	stability (overall conclusion in words) [2]	Form Change [2, 3]	Form Change ([2]; stored at 5° C. for 90 days)	Form Change [2, 4]	Form Change [2, 5]	further results
CCS(=O)(=O)N1CC(CC#N)(n2cc(-c3ncnc4[nH]ccc34)cn2)C1 [phosphate Form C]	2.85	–	Form C remain	–	–	–	weight gain under 80% Relative Humidity ([1]; listed as phosphate Form C of the compound Formula (I)): 2.85%; Form Change ([2]; stored at 40° C./75% RH for 30 days): Form C remain
CCS(=O)(=O)N1CC(CC#N)(n2cc(-c3ncnc4[nH]ccc34)cn2)C1 [phosphate Form A]	0.99	good stability	–	remains unchanged	remains unchanged	remains unchanged	weight gain under 80% Relative Humidity ([1]; listed as phosphate Form A of the compound Formula (I)): 0.99%; Form Change ([2]; stored at 5° C. for 90 days, listed as Phosphate Crystalline Form A): Form A remain unchanged; Form Change ([2]; stored at 25° C./60% RH for 90 days, listed as Phosphate Crystalline Form A): Form A remain unchanged; Form Change ([2]; stored at 40° C./75% RH for 90 days, listed as Phosphate Crystalline Form A): Form A remain unchanged
CCS(=O)(=O)N1CC(CC#N)(n2cc(-c3ncnc4[nH]ccc34)cn2)C1 [Baricitinib]	–	–	–	–	–	–	inhibition strength for JAK2 relative to JAK3 (JAK2): 100 times

Further lines, with some results ahead:

weight gain under 80% Relative Humidity [1] [%]	stability (overall conclusion in words) [2]	SMILES	Form Change [2, 3]	Form Change ([2]; stored at 5° C. for 90 days)	Form Change [2, 4]	Form Change [2, 5]	further results
–	good stability	CCS(=O)(=O)N1CC(CC#N)(n2cc(-c3ncnc4[nH]ccc34)cn2)C1 [Form II]	remains unchanged; also recorded: Form II remain unchanged	remains unchanged; also recorded: Form II remain unchanged	–	–	–
–	good stability	CCS(=O)(=O)N1CC(CC#N)(n2cc(-c3ncnc4[nH]ccc34)cn2)C1 [Form I]	–	remains unchanged; also recorded: Form I remain unchanged	remains unchanged; also recorded: Form I remain unchanged	remains unchanged; also recorded: Form I remain unchanged	hygroscopicity class ([1]; Chinese Pharmacopoeia 2010 definition, 25° C.+/-1° C., 80% Relative Humidity): slightly hygroscopic (slightly hygroscopic: increase in mass is less than 2 percent and equal to or greater than 0.2 percent); weight gain under 80% Relative Humidity ([1]; listed as Form I of the compound Formula (I)): 0.44%
